Measurements as given in patent US12036214B2, “Solid dispersion comprising an anticancer compound for improved solubility and efficacy” (COUNCIL OF SCIENTIFIC AND INDUSTRIAL RESEARCH, priority 2018, dated 2024).
Where “and” joins values, the source holds several entries; their conditions need not be identical. Equal entries are not always repeated.

How the values were obtained:
Lipophilicity (log P) = format: physicochemical
[1] = Water solubility by shake flask method with HPLC analysis; format: physicochemical; settings: distilled water, 25 °C, thermodynamic from solid
Description: (§1) The water solubility of prepared solid dispersions along with compound of Formula A was determined using shake flask method, wherein the analysis was done by HPLC. The in-vitro dissolution studies were performed using U.S.P. type-2 (paddle type) dissolution apparatus at a speed of 50 rpm, and temperature of 37° C.±0.5, using 250 ml of dissolution media (0.25% SLS containing water and phosphate buffer pH 6.8 up to 6 h). Further, the solid dispersions were characterized using different analytical techniques such as DSC, FTIR, XRD, etc.
Solid dispersions were formulated as different formulations containing anticancer compound (formula A) along with different polymers in different proportions as shown in Table 1 and 2. First the anticancer compound and various excipients/hydrophilic polymers were weighed accurately. Both the compound and polymers were dissolved in methanol. Those polymers which were insoluble in methanol were dissolved in water. […] After complete drying, the water solubility of compound was determined by shake-flask method followed by […] analysis. […]
The water solubility of formulations prepared in Example 4 and compound of Formula A was determined in each well of plate containing different solid dispersion formulations. […] The supernatant was then analyzed by RP-HPLC.

[2] = pH dependent stability in buffers, SGF, SIF and plasma; format: physicochemical; settings: pH 1.2, pH 4.0, pH 6.8, PBS pH 7.4, SGF (pH 1.2), SIF (pH 6.8) and plasma, upto 24 hrs
Description: The stability of compound was performed in pH 1.2 buffer, pH 4.0 buffer, phosphate buffer pH 6.8, phosphate buffered saline pH 7.4, SGF (pH 1.2), SIF (pH 6.8) and plasma upto 24 hrs. The % compound hydrolyzed or degraded was determined by HPLC analysis.

[3] = In-vitro dissolution, USP type-2 paddle apparatus, sink conditions; format: physicochemical; settings: 50 rpm, 37° C.
Description: as §1
The dissolution profile of compound and solid dispersion formulation VKB-SD75 was studied in sink conditions. For the sink condition, 0.25% SLS was added to dissolution media and dissolution was studied in water and pH 6.8 phosphate buffer (Ilevbare, G. A. et al., Pharmaceutical amorphous solid dispersions, Eds. John Wiley & Sons 2015, pp. 218). The dissolution studies were carried out using Lab-India Dissolution Tester (Model: DS 8000; apparatus 2—Paddle Apparatus) at 50 rpm and 37° C.±0.5 and dissolution media volume was 250 mL. Formulation equivalent to 10 mg of compound was added to each dissolution vessel in triplicate and 1 ml sample was taken and replaced by fresh dissolution media at different time points (0.25, 0.50, 1, 2, 4, 6 hrs).
The percentage drug dissolved was determined by HPLC analysis. […]

[4] = system: Ehrlich Ascites Carcinoma (EAC) cells; assay: Ehrlich solid tumor model; format: in vivo
Description: Novel oral solid dispersion containing anticancer compound of formula A was tested for in-vivo anticancer activity using Ehrlich Solid Tumor model. In this model, after oral administration of formulation VKB-SD75 and the compound of formula A in male Swiss mice up to 9 days, the % tumor growth inhibition was calculated on 13th day.
The in-vivo efficacy testing of best identified solid dispersion formulation VKB-SD75 was done using Ehrlich solid tumor model, parallelly with the compound of Formula A. Ehrlich Ascites Carcinoma (EAC) cells were collected from the peritoneal cavity of the Swiss mice weighing 18-23 g, harboring 8-10 days old ascetic tumor. 1×10^7 EAC cells were injected intramuscularly in the right thigh of Swiss male mice selected for the experiment on day 0. The next day, animals were randomized and divided into 8 groups. Seven treatment groups contained 7 animals each and one control groups contained 10 animals each. Treatment group 1-6 were treated with the compound of formula A and solid dispersion formulation at different dose strength once daily from day 1-9. The seventh treatment group was treated with 5-fluorouracil (22 mg/kg, i.p.) from day 1-9 and it served as positive control. The control group was similarly administered normal saline (0.2 ml, i.p) from day 1-9. On day 9 & 13, tumor-bearing thigh of each animal was shaved, and longest and shortest diameters of the tumor were measured with the help of vernier caliper. The percent tumor growth inhibition was calculated on day 13 by comparing the average values of treated groups with that of the control group. Tumor growth in saline-treated control animals was taken to be 100%.

[5] = male, BALB/c, mouse, in vivo, po, 50 mg/kg
Description: (§2) The vehicle used for PK study was 1% v/v Tween 80 in 0.5% sodium CMC in water. Blood samples were collected (n=3/time point) at 0.083 (IV only), 0.25, 0.5, 1, 2, 4, 8 and 24 h, post-dose. At each time point about 200 μL of blood was collected by jugular vein into a labeled microfuge tube containing 200 mM K2EDTA solution (20 μL per mL of blood) and equivalent volume of heparinized saline was replaced following sample collection. The blood samples were processed to obtain the plasma samples within 30 min of scheduled sampling time. All plasma samples were stored below −60° C. until bioanalysis. […] The pharmacokinetic parameters of compound of formula A were calculated using the non-compartmental analysis tool of validated Phoenix® WinNonlin® software (version 6.3).

Molt-4 = settings: read-out: Molt-4 cell growth GI50; cited from earlier work
MIAPaCa-2 = settings: read-out: MIAPaCa-2 cell growth GI50; cited from earlier work
[6] = system: cancer cells over normal fibroblast-cells; settings: cited from earlier work
CYP/efflux-pump = settings: cited from earlier work
pancreatic xenograft = settings: 50 mg/kg, po; cited from earlier work
colon xenograft = settings: 50 mg/kg, po; cited from earlier work
leukemia xenograft = settings: 50 mg/kg, po; cited from earlier work
in vivo = settings: male, BALB/c, mouse, po, 50 mg/kg
Description: as §2

physchem = settings: 37 °C, water, thermodynamic from solid

**Q.** Which results are given for `CN1CC[C@H](c2c(O)cc(O)c3c(=O)cc(/C=C/c4c(Cl)cccc4Cl)oc23)[C@H](O)C1` [Compound of formula A, (1′R,2′S)-2-(2,6-dichlorostyryl)-5,7-dihydroxy-8-(3-hydroxy-1-methylpiperidin-4-yl)-4H-chromen-4-one]?
**A.** log P (Lipophilicity (log P)): 3.10; solubility at 24 h [1]: 0.01 to 0.02 mg/mL; % drug remaining [2]: > 95%; % drug dissolution ([3]; phosphate buffer pH 6.8, 0.25% SLS, after 1 h): 63%; % drug dissolved ([3]; water containing 0.25% SLS, after 2 h): 49.15%; Mortality ([4]; 50 mg/kg p.o): 0/7; % Tumor growth inhibition on 13th day ([4]; 50 mg/kg p.o, once daily day 1-9): 24.75% and 24.75 ± 3.52%; Mortality ([4]; 75 mg/kg p.o.): 0/7; % Tumor growth inhibition on 13th day ([4]; 75 mg/kg p.o., once daily day 1-9): 30.92% and 30% and 30.92 ± 5.32%; Mortality ([4]; 100 mg/kg p.o.): 0/7; % Tumor growth inhibition on 13th day ([4]; 100 mg/kg p.o., once daily day 1-9): 38.63 ± 3.65%; AUClast [5]: 2.57 µg·h/mL; Cmax [5]: 0.656 µg/mL; GI50 (Molt-4): < 1 µM; GI50 (MIAPaCa-2): < 1 µM; selectivity for cancer cells over normal fibroblast-cells [6]: highly selective; CYP/efflux-pump liability (CYP/efflux-pump): did not have CYP/efflux-pump liability; in-vivo efficacy in pancreatic xenograft (pancreatic xenograft): showed in-vivo efficacy; in-vivo efficacy in colon xenograft (colon xenograft): showed in-vivo efficacy; in-vivo efficacy in leukemia xenograft (leukemia xenograft): showed in-vivo efficacy; Tmax (in vivo): 1 h; solubility at 120 min (physchem): 0.01 to 0.02 mg/mL

**Q.** For `O=c1[nH]cc(F)c(=O)[nH]1` [Formulation 5-FU, 5-fluorouracil, reference compound], which Mortality ([4]; 22 mg/kg, i/p) is on record?
**A.** 0/7

**Q.** What about the “% Tumor growth inhibition on 13th day” value ([4]; 22 mg/kg, i/p, day 1-9) of the same compound?
**A.** 49.44 ± 6.32%
